# Biological target: wild-type human cardiac sodium channel, hNav1.5 (Homo sapiens, UniProt Q14524)
# Experiment: Late INa screening assay (automated whole cell patch clamp, PatchXpress)
# Type: cell-based
# Conditions: compound at 1 μM; HEK293 cells expressing hNav1.5; late INa generated with 10 μM Tefluthrin (or 50 nM ATX II); read-out: LateINa_1 uM (percent block of late INa)
# How it was run: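 Late sodium current through wild-type human hNav1.5 stably expressed in HEK293 cells (no beta subunits) was recorded by automated whole-cell patch clamp on a PatchXpress 7000A at 24-27° C. Late INa was induced with 10 μM Tefluthrin or 50 nM ATX II. Cells were stepped from −120 mV to −20 mV for 250 ms at 0.1 Hz, and percent block was normalized to current in Na-free extracellular solution.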
# Sequence of wild-type human cardiac sodium channel, hNav1.5 (Q14524 whole entry): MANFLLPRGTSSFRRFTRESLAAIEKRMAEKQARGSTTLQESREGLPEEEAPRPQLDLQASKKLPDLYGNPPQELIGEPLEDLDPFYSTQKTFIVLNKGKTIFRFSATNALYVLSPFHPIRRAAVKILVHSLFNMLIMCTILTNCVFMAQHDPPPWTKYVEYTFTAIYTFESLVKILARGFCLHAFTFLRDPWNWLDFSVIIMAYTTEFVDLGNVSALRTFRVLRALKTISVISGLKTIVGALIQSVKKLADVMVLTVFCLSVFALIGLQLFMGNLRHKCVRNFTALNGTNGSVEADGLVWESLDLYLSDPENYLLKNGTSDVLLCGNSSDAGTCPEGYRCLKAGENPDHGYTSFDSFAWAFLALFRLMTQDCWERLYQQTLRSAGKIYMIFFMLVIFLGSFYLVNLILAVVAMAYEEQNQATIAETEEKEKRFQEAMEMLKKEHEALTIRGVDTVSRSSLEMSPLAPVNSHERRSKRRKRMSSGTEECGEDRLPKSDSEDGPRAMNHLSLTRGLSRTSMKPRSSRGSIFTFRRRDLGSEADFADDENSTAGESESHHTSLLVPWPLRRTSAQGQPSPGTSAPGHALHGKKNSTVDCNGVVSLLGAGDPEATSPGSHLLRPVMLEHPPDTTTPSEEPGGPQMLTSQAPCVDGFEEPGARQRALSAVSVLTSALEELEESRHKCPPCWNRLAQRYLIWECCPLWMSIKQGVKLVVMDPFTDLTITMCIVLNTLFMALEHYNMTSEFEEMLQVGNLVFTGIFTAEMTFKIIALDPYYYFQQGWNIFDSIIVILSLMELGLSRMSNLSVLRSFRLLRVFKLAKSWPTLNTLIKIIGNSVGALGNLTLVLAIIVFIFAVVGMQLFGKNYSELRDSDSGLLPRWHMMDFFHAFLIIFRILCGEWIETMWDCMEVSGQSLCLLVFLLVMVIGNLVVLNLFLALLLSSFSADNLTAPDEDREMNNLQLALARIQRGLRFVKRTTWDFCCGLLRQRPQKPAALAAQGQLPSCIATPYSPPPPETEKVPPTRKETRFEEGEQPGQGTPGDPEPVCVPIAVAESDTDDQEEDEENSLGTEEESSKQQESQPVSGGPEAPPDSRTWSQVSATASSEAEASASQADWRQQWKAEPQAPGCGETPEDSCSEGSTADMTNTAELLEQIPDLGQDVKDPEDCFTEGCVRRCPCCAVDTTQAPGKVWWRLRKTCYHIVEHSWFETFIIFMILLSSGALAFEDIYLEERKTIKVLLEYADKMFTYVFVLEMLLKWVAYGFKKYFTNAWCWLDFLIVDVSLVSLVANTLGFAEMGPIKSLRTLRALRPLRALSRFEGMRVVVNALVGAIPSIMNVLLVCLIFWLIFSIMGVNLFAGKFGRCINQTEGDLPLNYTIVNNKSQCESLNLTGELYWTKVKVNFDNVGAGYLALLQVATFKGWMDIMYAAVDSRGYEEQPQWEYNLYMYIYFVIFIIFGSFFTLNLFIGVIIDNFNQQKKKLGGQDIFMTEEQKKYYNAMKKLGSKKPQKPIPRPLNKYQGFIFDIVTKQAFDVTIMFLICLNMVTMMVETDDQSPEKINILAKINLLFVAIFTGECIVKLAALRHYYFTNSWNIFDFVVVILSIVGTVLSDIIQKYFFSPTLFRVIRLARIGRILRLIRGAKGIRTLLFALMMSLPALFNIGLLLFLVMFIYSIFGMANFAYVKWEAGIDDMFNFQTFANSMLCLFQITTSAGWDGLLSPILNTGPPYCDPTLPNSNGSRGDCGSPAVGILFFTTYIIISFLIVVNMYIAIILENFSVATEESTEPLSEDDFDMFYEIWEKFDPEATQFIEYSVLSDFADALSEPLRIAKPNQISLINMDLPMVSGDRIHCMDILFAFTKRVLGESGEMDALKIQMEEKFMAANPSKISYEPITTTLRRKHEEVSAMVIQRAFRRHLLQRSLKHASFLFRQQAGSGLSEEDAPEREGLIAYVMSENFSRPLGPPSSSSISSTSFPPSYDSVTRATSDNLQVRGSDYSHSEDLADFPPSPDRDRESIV
row,SMILES,inhibition at 1 µM
1,"CC(C)c1nc(COC(F)(F)c2nnc3ccc(-c4ccc(OC(F)(F)F)cc4)cn23)no1 [BHN-208, 3-(difluoro{[5-(propan-2-yl)-1,2,4-oxadiazol-3-yl]methoxy}methyl)-6-[4-(trifluoromethoxy)phenyl][1,2,4]triazolo[4,3-a]pyridine]",70.5%
2,"FC(F)(F)c1ccc(C#Cc2ccc3nnc(C(F)(F)F)n3c2)cc1 [BHN-177, 3-(trifluoromethyl)-6-{[4-(trifluoromethyl)phenyl]ethynyl}[1,2,4]triazolo[4,3-a]pyridine]",23.6%
3,"Cc1cc(-c2ccc(OC(F)(F)F)cc2)cn2c(C(F)(F)F)nnc12 [BHN-103, 8-methyl-6-[4-(trifluoromethoxy)phenyl]-3-(trifluoromethyl)[1,2,4]triazolo[4,3-a]pyridine]",40.7%
4,"FC(F)(F)c1nnc2ccc(C#Cc3ccccc3)cn12 [BHN-163, 6-(phenylethynyl)-3-(trifluoromethyl)[1,2,4]triazolo[4,3-a]pyridine]",57.3%
5,"FC(F)(F)Oc1ccc(-c2ccc3nnc(C(F)(F)OCc4ccc(-n5cccn5)nc4)n3c2)cc1 [BHN-315, 3-(difluoro{[6-(1H-pyrazol-1-yl)pyridin-3-yl]methoxy}methyl)-6-[4-(trifluoromethoxy)phenyl][1,2,4]triazolo[4,3-a]pyridine]",55.9%
6,"COCC(F)(F)c1nnc2ccc(-c3ccc(OC(F)(F)F)c(C)c3)cn12 [BHN-188, 3-(1,1-difluoro-2-methoxyethyl)-6-[3-methyl-4-(trifluoromethoxy)phenyl][1,2,4]triazolo[4,3-a]pyridine]",41.3%

# Same assay, conditions: compound at 10 μM; HEK293 cells expressing hNav1.5; late INa generated with 10 μM Tefluthrin (or 50 nM ATX II); read-out: LateINa_10 uM (percent block of late INa)
row,SMILES,inhibition at 10 µM
1,"CCOC(=O)c1cccc(-c2ccc3nnc(-c4cccc(C(=O)OCC)c4)n3c2)c1 [BHN-80, diethyl 3,3′-[1,2,4]triazolo[4,3-a]pyridine-3,6-diyldibenzoate]",59%
2,"c1ccc(Oc2cccc(-c3ccc4ncnn4c3)c2)cc1 [BHN-347, 6-(3-phenoxyphenyl)[1,2,4]triazolo[1,5-a]pyridine]",73.6%
